Source: EP0479834B1, “COMPETITIVE ENZYME ASSAY FOR DETERMINATION OF PHOSPHOTHIOATE INSECTICIDES” (COMMONWEALTH SCIENTIFIC AND INDUSTRIAL RESEARCH ORGANISATION, priority 1989, dated 1991)

Tests used:
Format in all cases: binding
[1] = tested on: Antibody F7 (phosphorothioate-specific antibody; control pesticide chlorpyrifos-methyl); assay: competition ELISA, assay format 2 (pesticide-macromolecule conjugate on the solid phase, antibody in solution); conditions: Antibody F7, assay format 2, control pesticide CP; 30 min antibody incubation
Method: The solid phase is coated with a pesticide-macromolecule conjugate. For the results listed in Table 1, the immunogen conjugate of chlorpyrifos-methyl (F7) was used. Following pretreatment to minimize non-specific binding of conjugate by treatment with a suitable protein or detergent, the sample to be analyzed is added. The grain, food or other sample may either be extracted in methanol, ethanol or other polar water-miscible solvent, or otherwise be extracted with a volatile organic solvent such as dichloromethane or acetone. The solvent may be removed by evaporation and the residue redissolved in a smaller volume of methanol. The extract or reconstituted residue is diluted in a protein and detergent - containing buffer and applied to the solid phase and antibody is added immediately. A standard is prepared in methanol and dilutions of this standard assayed simultaneously. Such antibody may either be enzyme-labelled by direct covalent association or a suitable amplification step used to detect binding of the antibody. Analysis by this technique is based on the competition between phosphorothioate in the test sample and solid phase- bound phosphorothioate, for binding to antibody in solution. There is a decrease in the binding of antibody as the concentration of organophosphate increases in the test sample; this is manifest in decreasing absorbance of the coloured enzyme product, in this example. The concentration of organophosphate may be assessed as described in assay format 1. Clean-up of the extracts was not necessary.
An antibody incubation time of 30 minutes was used, together with 20 min (2,2'-azino bis (3-ethylbenzthiazoline-6-sulfonic acid)) substrate incubation time. The overall assay time can be reduced to 5-10 minutes or increased to 18 hours for batchwise analysis of large numbers of (several hundred) samples.
The data shown in Table 1 are potencies relative to the control pesticide (determined as relative concentration yielding 50% inhibition of antibody binding). Absolute amounts of control pesticide yielding 50% inhibition of antibody binding in competition ELISA are: P9 (0.001 ng), F7 (50 ng), Pll (2 ng).

[2] = tested on: Antibody F9 (phosphorothioate-specific antibody; control pesticide chlorpyrifos-methyl); assay: competition ELISA, assay format 1 (antibody on the solid phase, horseradish peroxidase-labelled phosphorothioate); conditions: Antibody F9, assay format 1, control pesticide CP; 30 min incubation with enzyme conjugate
Method: (§1) The solid phase is coated with phosphorothioate-specific antibody. Preferentially the antibody is coated at 10µg/mL in 50mM sodium carbonate buffer, pH 9.6. Non-specific binding of immunoreactants is then minimized by treatment with a suitable protein or detergent, for example, 10mg/mL bovine serum albumin in 50mM sodium phosphate, pH 7.2 - 0.9% sodium chloride. The grain or food or other sample to be analyzed is extracted in neat methanol or ethanol, although other polar water-miscible solvents may be used; such as isopropanol, acetonitrile and acetone. Mixtures of water and these solvents may also be used. The grain, food or other extract is diluted five-fold in a protein and detergent-containing buffer (for example 10mg/mL bovine serum albumin or lmg/mL Teleostean fish skin gelatin in 0.05% (v/v) Tween in phosphate-buffered saline) applied to the solid phase and enzyme-labelled phosphorothioate (diluted similarly) is added immediately. A standard is prepared in methanol or ethanol and dilutions of this standard assayed simultaneously.
(§2) An incubation time of 30 min with chlorpyrifos-methyl (P9) or pirimiphos-methyl (P11) conjugated to horseradish peroxidase was used for the results shown in Table 1, together with 10 min chromogenic substrate (2,2'-azino-bis (3-ethyl benzthiazoline -6- sulfonic acid)) incubation time. The chromogen 3,3',5,5'-tetramethylbenzidine may also be used.
(§3) Analysis by this technique is based on the competition between phosphorothioate in the test sample and enzyme-labelled phosphorothioate for binding to phosphorothioate-specific antibody on the solid phase. There is a decrease in the binding of the enzyme-labelled phosphorothioate as the concentration of phosphorothioate increases in the test sample; this is manifest in decreasing absorbance of the coloured enzyme product. The concentration of phosphorothioate in an unknown sample may be determined by comparing the degree of inhibition of antibody binding caused by the addition of the sample extract with that resulting from the addition of known amounts of phosphorothioate. […]

[3] = tested on: Antibody P11 (phosphorothioate-specific antibody; control pesticide pirimiphos-methyl); assay: as above; conditions: Antibody P11, assay format 1, control pesticide PY; 30 min incubation with enzyme conjugate
Method: as §1, §2, §3

| Structure (SMILES) | potencies relative to the control pesticide (relative concentration yielding 50% inhibition of antibody binding) [1] | potencies relative to the control pesticide (relative concentration yielding 50% inhibition of antibody binding) [2] | potencies relative to the control pesticide (relative concentration yielding 50% inhibition of antibody binding) [3] |
| --- | --- | --- | --- |
| COP(=S)(OC)Oc1ccc([N+](=O)[O-])cc1 [methylparathion] | 0.003 |  |  |
| COP(=S)(OC)Oc1nc(Cl)c(Cl)cc1Cl [chlorpyrifos-methyl (CP), chlorpyrifos-methyl] | 1.0 | 1.0 |  |
| CCOP(=S)(OCC)Oc1nc(Cl)c(Cl)cc1Cl [chlorpyrifos-ethyl] | 0.07 |  |  |
| CCN(CC)c1nc(C)cc(OP(=S)(OC)OC)n1 [pirimiphos-methyl (PY), pirimiphos-methyl] |  |  | 1.0 |
| COP(=S)(OC)Oc1ccc([N+](=O)[O-])c(C)c1 [fenitrothion (FN), fenitrothion] | 0.01 |  |  |
| CCOP(=S)(OCC)Oc1cc(C)nc(N(CC)CC)n1 [pirimiphos-ethyl] |  |  | 2.9 |
| COP(=S)(OC)Oc1ccc([N+](=O)[O-])cc1Cl [dicapthon] | 0.01 |  |  |
